# Read-outs that look alike come from different tables or passages of the source.
# Experiments:
# [1] = Cytotoxicity assessment in vitro (MTT assay); format: cell-based; details: human
# Experimental: (§1) HepG2 cells of human hepatocellular carcinoma (ATCC HB-8065; passage 20–25), purchased from Health Protection Agency Culture Collections (ECACC, Salisbury, UK), were cultured in Minimum Essential Medium Eagle supplemented with 10% v/v fetal bovine serum and 1% v/v L-glutamine solution (Sigma-Aldrich, St. Louis, MO, USA) at 37 °C in a humidified atmosphere containing 5% CO2. For passaging, the cells were treated with trypsin/EDTA (Sigma-Aldrich, St. Louis, MO, USA) at 37 °C and then harvested. For the cytotoxicity evaluation, the cells treated with the test substances were used, while untreated HepG2 cells served as a control group. The cells were seeded in a 96-well plate at a density of 1 × 10^4 cells per well and incubated for 24 h. All tested compounds were dissolved in DMSO to prepare 10 mM stock solutions and diluted to the desired concentration just before the cell treatment. Cytotoxicity of all studied derivatives was screened at 10 μM concentration, and all samples were measured in triplicates. Positive and negative controls were also included. Plates were incubated for 24 h in a humidified atmosphere containing 5% CO2 at 37 °C. After the incubation, a solution of thiazolyl blue tetrazolium bromide (Sigma-Aldrich, St. Louis, MO, USA) in RPMI 1640 medium without phenol red (BioTech, Prague, Czech Republic) was added and incubated for 3 h in a humidified atmosphere containing 5% CO2 at 37 °C. Afterwards, formazan crystals were dissolved in DMSO, and the absorbance of samples was recorded at 570 nm (Synergy Neo2 Multi-Mode Reader NEO2SMALPHAB; BioTek, Winooski, VT, USA).
# [2] = system: HepG2 cells; test: Cytotoxicity assessment in vitro (MTT assay); format: cell-based
# Experimental: as §1
# [3] = system: Huh-7 cell line; test: Huh-7 cell confluency by alamarBlue assay during hepatic-stage test; format: cell-based
# Experimental: (§2) Activity against the hepatic stage of P. berghei infection was assessed using the human hepatoma cell line Huh-7 (deposited at the Japanese Collection of Research Bioresources under JCRB0403). The protocol was previously comprehensively described by Prudêncio et al. and by Ploemen et al.. Briefly, cell culture medium consisted of 1640 RPMI medium supplemented with 10% v/v fetal calf serum, 1% v/v L-glutamine, 1% v/v nonessential amino acids, 1% v/v penicillin/streptomycin, and 10 mM HEPES, pH 7. Cells were seeded in 96-well plates at a density of 1 × 10^4 cells per well in 100 µL of culture medium and incubated at 37 °C with 5% CO2 for approximately 18 h. […] The culture medium was substituted by infection medium with diluted compounds 1 hour in advance of infection. Luciferase-expressing P. berghei sporozoites (PbA-LuciGFPcon spz) were freshly obtained through the dissection of salivary glands from infected female Anopheles stephensi mosquitoes. Sporozoites were added to the cells at 1:1 ratio, i.e., 1 × 10^4 sporozoites were added per well, and then subjected to centrifugation at 1800× g for 5 min. The plate was then incubated for 46 h at 37 °C with 5% CO2, at which time Huh-7 cell confluency was indirectly assessed by the alamarBlue assay (Invitrogen, Waltham, MA, USA), as reported in the manufacturer’s protocol. Parasite load was assessed 48 h post-infection by a bioluminescence assay, as reported by the manufacturer (Biotium, Fremont, CA, USA). GraphPad Prism 8 (GraphPad Software, Inc., La Jolla, CA, USA) was used to obtain IC50 values using nonlinear regression analysis to fit the dose-response curves normalized results.
# [4] = system: hepatic stage of P. berghei; test: In vitro activity against P. berghei hepatic stages (luciferase-expressing sporozoites in Huh-7 cells, bioluminescence); format: cell-based, Plasmodium berghei; set-up: INFECTION (IC50 determination): unit not given here; details: for activity at 1 µM / activity at 10 µM / IC50: Plasmodium berghei; for activity at 1 µM / activity at 10 µM: Huh-7, 48 h, read-out: INFECTION Ø screening; for activity at 1 µM / activity at 10 µM / INFECTION (IC50 determination): DMSO = 100
# Experimental: as §2, with “Briefly, cell culture medium consisted of 1640 RPMI medium supplemented with 10% v/v fetal calf serum, 1% v/v L-glutamine, 1% v/v nonessential amino acids, 1% v/v penicillin/streptomycin, and 10 mM HEPES, pH 7.” left out
# [5] = Huh-7, replicate 1, unit (Table 1: µM), read-out: Antiplasmodial activity - IC50 determination, 1. measurement
# [6] = Huh-7, replicate 2, unit (Table 1: µM), read-out: Antiplasmodial activity - IC50 determination, 2. measurement
# [7] = hepatic stage, Huh-7 cells, parasite load 48 h post-infection, read-out: IC50 P. berghei
# [8] = Huh-7, replicate 3, unit (Table 1: µM), read-out: Antiplasmodial activity - IC50 determination, 3. measurement
SMILES,"viability at 24 h, 10 µM [1]","1. screening of cytotoxic potential, HepG2 cell line ([2]; human, 24 h, 10 µM)","2. screening of cytotoxic potential, HepG2 cell line ([2]; human, 24 h, 10 µM)","3. screening of cytotoxic potential, HepG2 cell line ([2]; human, 24 h, 10 µM)","Ø screening, HepG2 (sheet Graphs) ([2]; human, 24 h, 10 µM)","CELL CONFLUENCY Ø screening ([3]; human, 46 h, 1 µM, pH 7)","CELL CONFLUENCY Ø screening ([3]; human, 46 h, 10 µM, pH 7)",activity at 1 µM [4],activity at 10 µM [4],"IC50 [4, 5]","IC50 [4, 6]","IC50 [4, 7]","IC50 [4, 8]",further results
"CCOc1cc(OCC)cc(C(=O)O[C@@H]2CN3Cc4c(cc5c(c4OC)OCO5)[C@@]24C=C[C@H](OC)C[C@@H]34)c1 [28o, 11-O-(3,5-Diethoxybenzoyl)ambelline]",56 ± 8%,65.61,51.07,51.54,56.07,97.15,52.09,10.9%,0.0467%,0.307 µM,0.326 µM,0.316 ± 0.013 µM,–,–
"COc1cccc(C(=O)O[C@@H]2CN3Cc4c(cc5c(c4OC)OCO5)[C@@]24C=C[C@H](OC)C[C@@H]34)c1 [28j, 11-O-(3-Methoxybenzoyl)ambelline]",–,–,–,–,–,–,–,10.8%,0.612%,0.19 µM,0.362 µM,0.261 ± 0.09 µM,0.232 µM,"viability at 24 h, 10 µM ([1]; c = 10 µM, 24 h, MTT, read-out: HepG2 % of cell viability compared to non-treated control (100%)): 81 ± 10%; Ø screening, HepG2 (sheet Graphs) ([2]; c = 10 μM, DMSO = 100, in %): 80.77; 1. screening of cytotoxic potential, HepG2 cell line ([2]; c = 10 μM, replicate 1, in %): 69.18; 2. screening of cytotoxic potential, HepG2 cell line ([2]; c = 10 μM, replicate 2, in %): 85.98; 3. screening of cytotoxic potential, HepG2 cell line ([2]; c = 10 μM, replicate 3, in %): 87.15; CELL CONFLUENCY Ø screening ([3]; at 1 μM, DMSO = 100, in % (unit assumed)): 109.9; CELL CONFLUENCY Ø screening ([3]; at 10 μM, DMSO = 100, in % (unit assumed)): 81.02"
"COc1ccc(C(=O)O[C@@H]2CN3Cc4c(cc5c(c4OC)OCO5)[C@@]24C=C[C@H](OC)C[C@@H]34)cc1OC [28l, 11-O-(3,4-Dimethoxybenzoyl)ambelline]",99 ± 9%,106.14,89.55,102.39,99.36,85.82,70.05,1.65%,0.301%,0.16 µM,0.135 µM,0.147 ± 0.018 µM,–,–
"COc1ccccc1C(=O)O[C@@H]1CN2Cc3c(cc4c(c3OC)OCO4)[C@@]13C=C[C@H](OC)C[C@@H]23 [28i, 11-O-(2-Methoxybenzoyl)ambelline]",86 ± 2%,85.49,83.85,87.77,85.7,140.5,135.7,60.6%,1.65%,1.53 µM,2.98 µM,2.4 ± 0.77 µM,2.7 µM,–
"COc1cc(C(=O)O[C@@H]2CN3Cc4c(cc5c(c4OC)OCO5)[C@@]24C=C[C@H](OC)C[C@@H]34)cc(OC)c1OC [28n, 11-O-(3,4,5-Trimethoxybenzoyl)ambelline]",52 ± 2%,52.2,49.89,54.09,52.06,69.5,68.02,2.38%,0.82%,0.047 µM,0.047 µM,0.047 µM,–,"Huh-7 cell viability [3]: cell viability was not affected at antiplasmodial-active concentrations; CELL CONFLUENCY (IC50 determination) ([3]; human, 46 h, 0.001 µM, pH 7): 120.661; CELL CONFLUENCY (IC50 determination) ([3]; human, 46 h, 0.01 µM, pH 7): 126.131; CELL CONFLUENCY (IC50 determination) ([3]; human, 46 h, 0.04 µM, pH 7): 117.957; CELL CONFLUENCY (IC50 determination) ([3]; human, 46 h, 0.07 µM, pH 7): 115.634; CELL CONFLUENCY (IC50 determination) ([3]; human, 46 h, 0.1 µM, pH 7): 118.616; CELL CONFLUENCY (IC50 determination) ([3]; human, 46 h, 0.5 µM, pH 7): 106.144; IC50 ([4]; Huh-7, abstract, read-out: IC50 against hepatic stage of Plasmodium infection): 0.047 µM; IC50 ([4]; Huh-7, mean, unit (Table 1: µM), read-out: Antiplasmodial activity - Ø IC50): 0.047 µM; INFECTION (IC50 determination) ([4]; at 0.001 µM): 132.557; INFECTION (IC50 determination) ([4]; at 0.01 µM): 115.469; INFECTION (IC50 determination) ([4]; at 0.04 µM): 56.6784; INFECTION (IC50 determination) ([4]; at 0.07 µM): 26.9184; INFECTION (IC50 determination) ([4]; at 0.1 µM): 17.5104; INFECTION (IC50 determination) ([4]; at 0.5 µM): 2.9184"

# Source: article PMC10056443, “Derivatives of Amaryllidaceae Alkaloid Ambelline as Selective Inhibitors of Hepatic Stage of Plasmodium berghei Infection In Vitro” (Pharmaceutics, 2023)
